Patent publication US8372979B2, “Process for the production of high-purity 2,4′-dimethyl-3-piperidino-propiophenone (tolperisone), pharmaceutical compositions that contain the latter, as well as active ingredient formulations that contain tolperisone” (SANOCHEMIA Pharmazeutika AG, priority 2007, dated 2013)
“Also recorded” adds a separate entry of the source.

Assays:
[1] = preclinical in vitro tests (genotoxicity); conditions: classification also based on chemical structure
[2] = storage stability of tolperisone end product (4-MMPPO formation, HPLC-MS/MS); type: physicochemical
Description: Prior art according to AT PS 413 539: The tolperisone crude product is dissolved under reflux for 30 minutes in an 85:15 mixture that consists of 2-butanone (MEK) and isopropanol. The temperature is lowered to 80° C., and the solution is hot-filtered. The solution is allowed to cool to 5° C., and it is stirred for 7 hours. The crystalline precipitate that is obtained is filtered off, washed with 2-butanone, and then dried in a vacuum at 45-85° C.
A proportion of 500 ppm of 4-MMPPO is detected by analysis using HPLC-MS/MS.
The tolperisone crude product is dissolved under reflux for 12 hours in an 85:15 mixture that consists of 2-butanone (MEK) and isopropanol and with the addition of 1% HCl and 5% citric acid. The temperature is lowered to 80° C., and the solution is hot-filtered. The solution is allowed to cool to 5° C., and it is stirred for 7 hours at 5° C. The crystalline precipitate is filtered off, washed with MEK, and then dried in a vacuum at 45° to 85° C.
By analysis using HPLC-MS/MS, a proportion of 4-MMPPO in a range of 0 ppm (not detectable) to 10 ppm is determined.

| stabilizing effect of citric acid present in end product ([2]; Variant IIIa: recrystallization in MEK/IPA + 1% HCl + 5% citric acid) | 4-MMPPO values with extended storage ([2]; end product of prior-art process AT 413 539 (recrystallization MEK/IPA, no acid)) | Structure (SMILES) | genotoxic or carcinogenic actions [1] |
| --- | --- | --- | --- |
|  |  | C=C(C)C(=O)c1ccc(C)cc1 [4-MMPPO, 2-methyl-1-(4-methylphenyl)-propenone] | genotoxic or carcinogenic actions have been detected; also recorded: potentially genotoxic |
| a stabilizing effect could be detected | additional increasing 4-MMPPO values | Cc1ccc(C(=O)C(C)CN2CCCCC2)cc1 (stereo not drawn) [tolperisone, 2,4′-dimethyl-3-piperidino-propiophenone] |  |
